Source: PMC11249953, “c-KIT inhibitors reduce pathology and improve behavior in the Tg(SwDI) model of Alzheimer’s disease” (Life Science Alliance, 2024)
Where “and” joins values, the source holds several entries; their conditions need not be identical. Equal entries are not always repeated.

Tests used:
KIT = molecular target: T1, KIT (Homo sapiens, UniProt P10721); experiment: KINOMEscan competition binding, KIT; conditions: 10 µM compound; for remaining binding at 10 µM: lower = stronger binding, read-out: KIT %Ctrl @ 10000nM (POC)
T1 construct: DNA label for qPCR read-out (T7 phage fusion or DNA tag); purchased Eurofins DiscoverX Corporation; host or cells: T7 phage in E. coli (BL21-derived) or HEK-293
T1 sequence (P10721 26-976): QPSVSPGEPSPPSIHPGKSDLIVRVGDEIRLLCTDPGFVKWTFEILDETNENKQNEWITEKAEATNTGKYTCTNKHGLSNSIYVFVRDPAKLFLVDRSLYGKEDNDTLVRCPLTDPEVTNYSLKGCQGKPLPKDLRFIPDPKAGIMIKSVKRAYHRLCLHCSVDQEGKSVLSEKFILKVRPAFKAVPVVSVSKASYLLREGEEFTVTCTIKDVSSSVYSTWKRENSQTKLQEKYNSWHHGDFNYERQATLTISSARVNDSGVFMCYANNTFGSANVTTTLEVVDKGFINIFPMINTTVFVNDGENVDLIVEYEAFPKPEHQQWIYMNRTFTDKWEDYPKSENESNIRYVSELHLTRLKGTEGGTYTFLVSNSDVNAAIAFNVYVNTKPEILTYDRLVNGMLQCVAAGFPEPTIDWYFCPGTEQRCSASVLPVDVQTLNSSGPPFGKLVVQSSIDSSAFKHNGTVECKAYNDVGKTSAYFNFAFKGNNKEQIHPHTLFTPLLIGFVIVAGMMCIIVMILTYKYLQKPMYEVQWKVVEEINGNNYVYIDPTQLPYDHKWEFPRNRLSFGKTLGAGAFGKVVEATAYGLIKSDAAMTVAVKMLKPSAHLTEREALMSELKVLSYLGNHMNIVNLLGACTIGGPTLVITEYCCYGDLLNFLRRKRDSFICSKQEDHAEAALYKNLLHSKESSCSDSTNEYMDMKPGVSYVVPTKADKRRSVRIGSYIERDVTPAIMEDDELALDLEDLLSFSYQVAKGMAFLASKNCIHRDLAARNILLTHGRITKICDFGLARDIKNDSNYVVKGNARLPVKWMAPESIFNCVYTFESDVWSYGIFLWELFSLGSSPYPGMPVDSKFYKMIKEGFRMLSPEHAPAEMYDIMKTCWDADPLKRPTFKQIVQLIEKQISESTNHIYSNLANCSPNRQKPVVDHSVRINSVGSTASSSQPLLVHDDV
Procedure: (§1) The KINOMEscan screening platform (Eurofins DiscoverX Corporation) was performed using active site-directed competition binding assay to quantitatively measure interactions between BK40143 and BK40197 and more than 450 human kinases and disease relevant mutant variants. […] Screening “hits” are identified by measuring the amount of kinase captured in test (BK40143 and BK40197) versus control samples by using a quantitative and ultra-sensitive qRT-PCR method that detects the associated DNA label. BK40143 and BK40197 were screened at 10 µM concentration, and results for primary screen binding interactions were reported as “% Ctrl” (POC), where lower numbers indicate stronger hits and calculated as follows: [test compound signal−positive control signal/negative control signal−positive control signal]×100
(§2) negative control = DMSO (100% Ctrl)
(§3) positive control = control compound (0% Ctrl)
(§4) Based on screening data from of profiled compounds, a proportional relationship between primary screening results and corresponding compound/target affinities can be described as binding constants (Kd values) for the indicated ranges of POC values with tighter binding (higher affinity) interactions associated with lower POC values and weaker binding (lower affinity) associated with higher POC values. Briefly, kinase-tagged T7 phage strains were grown in parallel in 24-well blocks in an E. coli host derived from the BL21 strain. E. coli were grown to log-phase and infected with T7 phage from a frozen stock (multiplicity of infection = 0.4) and incubated with shaking at 32°C until lysis (90–150 min). The lysates were centrifuged (6,000g) and filtered (0.2 μm) to remove cell debris. The remaining kinases were produced in HEK-293 cells and subsequently tagged with DNA for qRT-PCR detection. Streptavidin-coated magnetic beads were treated with biotinylated small molecule ligands for 30 min at RT to generate affinity resins for kinase assays. The liganded beads were blocked with excess biotin and washed with blocking buffer (1% BSA, 0.05% Tween 20, 1 mM DTT; SeaBlock [Pierce]) to remove unbound ligand and to reduce non-specific phage binding. Binding reactions were assembled by combining kinases, liganded affinity beads, and test compounds in 1x binding buffer (20% 0.17x PBS, 0.05% Tween 20, 6 mM DTT; SeaBlock). Test compounds were prepared as 100x stocks in 100% DMSO and directly diluted into the assay. All reactions were performed in polypropylene 384-well plates in a final volume of 0.02 ml. The assay plates were incubated at RT with shaking for 1 h and the affinity beads were washed with wash buffer (1x PBS, 0.05% Tween 20). […] The kinase concentration in the eluates was measured by qRT-PCR.

LCK = molecular target: T2, LCK (Homo sapiens, UniProt P06239); experiment: KINOMEscan competition binding, LCK; conditions: 10 µM compound; for remaining binding at 10 µM: lower = stronger binding, read-out: LCK %Ctrl @ 10000nM (POC)
T2 construct: DNA label for qPCR read-out (T7 phage fusion or DNA tag); purchased Eurofins DiscoverX Corporation; host or cells: T7 phage in E. coli (BL21-derived) or HEK-293
T2 sequence (P06239 whole entry, the tested form may be a part): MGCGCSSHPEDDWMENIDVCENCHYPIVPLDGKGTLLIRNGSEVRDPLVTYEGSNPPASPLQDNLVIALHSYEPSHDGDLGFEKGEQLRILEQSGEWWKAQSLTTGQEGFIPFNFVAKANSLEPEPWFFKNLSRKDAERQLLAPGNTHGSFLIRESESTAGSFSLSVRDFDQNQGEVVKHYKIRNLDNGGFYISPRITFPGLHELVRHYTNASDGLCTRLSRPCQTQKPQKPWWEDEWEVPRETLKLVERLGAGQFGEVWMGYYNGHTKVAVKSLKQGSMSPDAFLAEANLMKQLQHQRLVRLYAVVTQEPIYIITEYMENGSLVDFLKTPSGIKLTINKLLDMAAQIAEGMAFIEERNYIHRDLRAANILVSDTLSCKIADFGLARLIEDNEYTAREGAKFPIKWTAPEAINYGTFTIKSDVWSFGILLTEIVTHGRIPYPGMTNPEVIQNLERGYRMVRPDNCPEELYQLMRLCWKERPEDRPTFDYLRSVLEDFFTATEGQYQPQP
Procedure: as §1, §2, §3, §4

PIP5K1A = molecular target: T3, PIP5K1A (Homo sapiens, UniProt Q99755); experiment: KINOMEscan competition binding, PIP5K1A; conditions: 10 µM compound; for remaining binding at 10 µM: lower = stronger binding, read-out: PIP5K1A %Ctrl @ 10000nM (POC)
T3 construct: DNA label for qPCR read-out (T7 phage fusion or DNA tag); purchased Eurofins DiscoverX Corporation; host or cells: T7 phage in E. coli (BL21-derived) or HEK-293
T3 sequence (Q99755 whole entry, the tested form may be a part): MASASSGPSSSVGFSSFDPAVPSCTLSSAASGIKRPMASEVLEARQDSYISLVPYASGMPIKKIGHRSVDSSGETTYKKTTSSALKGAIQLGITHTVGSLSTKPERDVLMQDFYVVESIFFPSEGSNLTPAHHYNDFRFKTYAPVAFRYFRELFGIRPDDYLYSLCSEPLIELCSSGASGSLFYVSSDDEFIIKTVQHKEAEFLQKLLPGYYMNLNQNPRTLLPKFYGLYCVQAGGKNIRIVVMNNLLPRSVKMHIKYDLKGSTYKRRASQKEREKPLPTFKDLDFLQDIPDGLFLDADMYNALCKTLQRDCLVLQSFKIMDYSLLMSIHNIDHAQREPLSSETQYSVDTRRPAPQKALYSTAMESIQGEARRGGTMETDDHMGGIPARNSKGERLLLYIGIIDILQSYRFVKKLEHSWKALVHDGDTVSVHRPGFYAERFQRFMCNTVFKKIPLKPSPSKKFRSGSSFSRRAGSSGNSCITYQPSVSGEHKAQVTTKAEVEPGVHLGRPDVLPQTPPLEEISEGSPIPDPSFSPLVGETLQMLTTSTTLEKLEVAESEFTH
Procedure: as §1, §2, §3, §4

CSF1R = molecular target: T4, CSF1R (Homo sapiens, UniProt P07333); experiment: KINOMEscan competition binding, CSF1R; conditions: 10 µM compound; for remaining binding at 10 µM: lower = stronger binding, read-out: CSF1R %Ctrl @ 10000nM
T4 construct: DNA label for qPCR read-out (T7 phage fusion or DNA tag); purchased Eurofins DiscoverX Corporation; host or cells: T7 phage in E. coli (BL21-derived) or HEK-293
T4 sequence (P07333 20-972): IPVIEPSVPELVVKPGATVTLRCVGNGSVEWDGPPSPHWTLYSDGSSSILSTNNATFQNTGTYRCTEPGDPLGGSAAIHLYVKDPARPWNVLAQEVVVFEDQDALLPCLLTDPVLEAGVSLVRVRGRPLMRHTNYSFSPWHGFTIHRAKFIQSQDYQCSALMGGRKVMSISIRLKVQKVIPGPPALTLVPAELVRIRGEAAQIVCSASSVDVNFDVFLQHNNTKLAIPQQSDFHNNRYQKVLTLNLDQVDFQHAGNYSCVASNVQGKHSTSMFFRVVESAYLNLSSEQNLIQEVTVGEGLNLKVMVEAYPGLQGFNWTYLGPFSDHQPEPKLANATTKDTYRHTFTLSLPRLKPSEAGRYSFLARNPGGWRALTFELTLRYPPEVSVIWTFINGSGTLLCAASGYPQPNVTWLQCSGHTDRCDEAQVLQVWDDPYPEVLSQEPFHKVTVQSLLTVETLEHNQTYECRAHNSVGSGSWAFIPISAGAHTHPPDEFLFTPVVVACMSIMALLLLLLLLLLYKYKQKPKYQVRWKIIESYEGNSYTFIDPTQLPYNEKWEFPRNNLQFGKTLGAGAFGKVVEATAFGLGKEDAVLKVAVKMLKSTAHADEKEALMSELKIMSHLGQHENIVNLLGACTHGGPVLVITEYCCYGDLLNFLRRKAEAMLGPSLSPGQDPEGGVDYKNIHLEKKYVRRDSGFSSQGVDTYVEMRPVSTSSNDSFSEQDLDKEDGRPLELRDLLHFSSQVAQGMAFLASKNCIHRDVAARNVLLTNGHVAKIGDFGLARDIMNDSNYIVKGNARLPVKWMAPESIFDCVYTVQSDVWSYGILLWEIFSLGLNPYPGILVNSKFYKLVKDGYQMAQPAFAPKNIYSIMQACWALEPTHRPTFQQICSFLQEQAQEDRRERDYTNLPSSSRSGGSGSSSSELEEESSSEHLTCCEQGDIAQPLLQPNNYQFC
Procedure: as §1, §2, §3, §4

IRAK1 = molecular target: T5, IRAK1 (Homo sapiens, UniProt P51617); experiment: KINOMEscan competition binding, IRAK1; conditions: 10 µM compound; for remaining binding at 10 µM: lower = stronger binding, read-out: IRAK1 %Ctrl @ 10000nM (POC)
T5 construct: DNA label for qPCR read-out (T7 phage fusion or DNA tag); purchased Eurofins DiscoverX Corporation; host or cells: T7 phage in E. coli (BL21-derived) or HEK-293
T5 sequence (P51617 whole entry, the tested form may be a part): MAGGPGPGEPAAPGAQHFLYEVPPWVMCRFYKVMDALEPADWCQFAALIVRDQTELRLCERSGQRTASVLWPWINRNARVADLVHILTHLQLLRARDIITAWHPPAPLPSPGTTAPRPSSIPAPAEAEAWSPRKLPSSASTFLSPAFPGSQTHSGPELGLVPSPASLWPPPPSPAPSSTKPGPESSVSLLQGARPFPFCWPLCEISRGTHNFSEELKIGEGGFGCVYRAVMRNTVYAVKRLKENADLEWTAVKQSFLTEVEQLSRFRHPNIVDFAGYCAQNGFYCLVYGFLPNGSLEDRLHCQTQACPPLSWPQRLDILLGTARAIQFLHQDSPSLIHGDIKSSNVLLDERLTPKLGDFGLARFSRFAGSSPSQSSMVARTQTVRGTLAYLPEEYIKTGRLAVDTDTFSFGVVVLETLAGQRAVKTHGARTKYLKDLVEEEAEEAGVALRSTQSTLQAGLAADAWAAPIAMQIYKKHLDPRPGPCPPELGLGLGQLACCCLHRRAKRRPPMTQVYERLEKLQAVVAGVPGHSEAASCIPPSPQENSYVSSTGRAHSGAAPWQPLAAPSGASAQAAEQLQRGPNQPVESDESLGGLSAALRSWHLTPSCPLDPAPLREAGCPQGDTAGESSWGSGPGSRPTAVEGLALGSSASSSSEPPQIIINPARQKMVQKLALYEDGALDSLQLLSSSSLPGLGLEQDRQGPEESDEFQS
Procedure: as §1, §2, §3, §4

[1] = tested on: peripheral mast cells of TgAPP mice; experiment: In vivo mast cell analysis (flow cytometry of whole blood, CD117 / FcεR1); design: species or system mouse; key to CD117 (single-labelled mast cells): % of single-labelled (CD117+) mast cells; CD117 Total: unit not given here; conditions: for ratio of immature-to-mature mast cells (c-KIT+ versus c-KIT+/FcεR1α+) in whole blood: TgAPP mice, BK40143 5 mg/kg, BK40197 45 mg/kg, 6 wk, vs DMSO
Description: c-KIT is responsible for mast cell development and homeostasis ([Lake et al, 1978]; [Linnekin, 1999]; [Kitamura et al, 2006]). TKs are the central driving force for processes leading to mast cell activation ([Parravicini et al, 2002]; [Gomez et al, 2005]). Multiple receptors are capable of mediating or modifying mast cell activation ([Kraft & Kinet, 2007]; [Kuehn & Gilfillan, 2007]), the major receptor responsible being FcεRI, the high affinity receptor for immunoglobulin E (IgE) ([Rivera & Gilfillan, 2006]). Mast cells are tissue-resident cells of hematopoietic lineage which are derived from CD13^+CD34^+KIT(CD117)^+ bone marrow pluripotent progenitors ([Kirshenbaum et al, 1999]). Although mast cells play an important role in the innate immune system ([Marshall, 2004]; [Galli et al, 2005]), these cells are also responsible for the detrimental exaggerated reactions to antigen ([Galli et al, 2008]) that follow the release of potent inflammatory mediators as a consequence of receptor-mediated mast cell activation ([Metcalfe et al, 1997]). The progression of these cells to fully mature mast cells is dependent on c-KIT activation which occurs because of stem cell factor-induced c-KIT dimerization and auto-phosphorylation ([Kirshenbaum et al, 1999]). To verify the functional effects of BK40143 and BK40197 on c-KIT inhibition, we investigated whether inhibition of c-KIT with BK40143 and BK40197 affects peripheral mast cell populations in vivo. We collected whole blood samples from Tg(SwDI) (referred to as TgAPP) mice treated with 5 or 45 mg/kg of each drug, respectively, or DMSO for 6 wk before isolating mast cells for analysis via flow cytometry (Fig 3A–C). Whole blood was sorted for mast cells using a triple gating strategy: 647 anti-CD45 to isolate leukocytes, PE anti-c-KIT to isolate mast cells, and APC/fire anti-FcεR1α to identify mature mast cells. The ratio of immature-to-mature mast cells (c-KIT+ versus c-KIT+/ FcεR1α+) was compared between c-KIT inhibited and DMSO-treated controls to determine the functional consequence of c-KIT inhibition on peripheral mast cell maturation.
Whole blood samples were harvested from the right ventricle of treated and untreated mice and added to 1,000 U/ml heparin-coated tubes to prevent coagulation. 100 μl of blood was then treated with three flow-conjugated antibodies: 647 anti-mouse CD45 (cat. #103123; BioLegend), PE anti-mouse CD117 (c-KIT) (cat. # 105807; BioLegend), and APC/fire 750 anti-mouse FcεR1α (cat. #134339; BioLegend) for 30 min, then treated with 1x RBC lysis buffer (cat. #420301; BioLegend) for 20 min. Cells were washed and resuspended in cell staining buffer before being analyzed on a Becton Dickinson LSRFortessas flow cytometer. Immature-to-mature mast cell ratio was calculated by dividing the percentage of single-labelled (CD117+) mast cells by the total number of c-KIT expressing cells (CD117+ plus CD117+ FcεR1+). All animal work was approved by Georgetown University Animal Care and Use Committee (GUACUC).

[2] = 5mg/kg, whole blood, individual mice

Cc1cccc(-c2cc3nccc(N4CCOCC4)c3s2)c1 [BK40197] was tested, and the inhibition at 10 µM (KIT) was 99.7%, the remaining binding at 10 µM (KIT) was 0.3% and the inhibition at 10 µM (LCK) was 9%. It also gave a remaining binding at 10 µM (LCK) of 91%, an inhibition at 10 µM (PIP5K1A) of 94.9% and a remaining binding at 10 µM (PIP5K1A) of 5.1%. For the same molecule, the inhibition at 10 µM (CSF1R) was 77%, the remaining binding at 10 µM (CSF1R) was 23% and the inhibition at 10 µM (IRAK1) was 94.7%. For the same molecule, the remaining binding at 10 µM (IRAK1) was 5.3% and the “ratio of immature-to-mature mast cells (c-KIT+ versus c-KIT+/FcεR1α+) in whole blood” value [1] was “not statistically significant (P = 0.07) increase in immature-to-mature mast cell ratio”.
Work on Cc1cccc(-c2cc3nccc(Nc4ccccc4)c3s2)c1 [BK40143] yielded an inhibition at 10 µM (KIT) of 100%, a remaining binding at 10 µM (KIT) of 0% and an inhibition at 10 µM (LCK) of 92.9%. For the same molecule, the remaining binding at 10 µM (LCK) was 7.1%, the inhibition at 10 µM (PIP5K1A) was 68% and the remaining binding at 10 µM (PIP5K1A) was 32%. The inhibition at 10 µM (CSF1R) was 62%, the remaining binding at 10 µM (CSF1R) was 38% and the inhibition at 10 µM (IRAK1) was 54%. The remaining binding at 10 µM (IRAK1) was 46%, the “CD117 (single-labelled mast cells)” value [1, 2] was 1.06 and 0.7 and 1.08 and 1.14 and 0.83 and 6.55 and 2.98 and the “CD117 / Total (immature-to-mature mast cell ratio)” value [1, 2] was 0.9815 and 0.9589 and 0.9231 and 0.9661 and 0.9881 and 0.9278 and 0.9141. For the same molecule, the “CD117/FcER1 (double-labelled mast cells)” value [1, 2] was 0.02 and 0.03 and 0.09 and 0.04 and 0.01 and 0.51 and 0.28, the “CD117 Total” value [1, 2] was 1.08 and 0.73 and 1.17 and 1.18 and 0.84 and 7.06 and 3.26 and the “ratio of immature-to-mature mast cells (c-KIT+ versus c-KIT+/FcεR1α+) in whole blood” value [1] was “significantly greater ratio of immature-to-mature mast cells”.
